Reference: ChEMBL document CHEMBL1201862, “PubChem BioAssay data set” (2004)
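These data come from cells grown in 96-well plates and exposed to compound for 48 hours at five concentrations. GI50 is the concentration that inhibits growth by half.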 Active and inactive are the calls of the source. No stated cut-off is given here; in the data, active = GI50 up to about 1.1 µM and inactive = higher.

What was measured:
Assay in all cases: inhibition of tumour cell growth, NCI panel, 48 h
A498 = test system: A498
CAKI-1 = test system: CAKI-1
HCT-116 = test system: HCT-116
HCT-15 = test system: HCT-15
HL-60 = test system: HL-60
HOP-92 = test system: HOP-92
MCF7 = test system: MCF7
MDA-MB-231 = test system: MDA-MB-231
MDA-MB-435 = test system: MDA-MB-435
MOLT-4 = test system: MOLT-4
Malme-3M = test system: Malme-3M
OVCAR-8 = test system: OVCAR-8
SF-268 = test system: SF-268
SK-OV-3 = test system: SK-OV-3
SNB-19 = test system: SNB-19
SNB-75 = test system: SNB-75
T47D = test system: T47D
UACC-257 = test system: UACC-257
UO-31 = test system: UO-31
KM-20L2 = test system: KM-20L2

Compound | GI50 (A498) | GI50 (CAKI-1) | GI50 (HCT-116) | GI50 (HCT-15) | GI50 (HL-60) | GI50 (HOP-92) | GI50 (MCF7) | GI50 (MDA-MB-231) | GI50 (MDA-MB-435) | GI50 (MOLT-4) | GI50 (Malme-3M) | GI50 (OVCAR-8) | GI50 (SF-268) | GI50 (SK-OV-3) | GI50 (SNB-19) | GI50 (SNB-75) | GI50 (T47D) | GI50 (UACC-257) | GI50 (UO-31) | GI50 (KM-20L2)
CC(=O)OCOC(=O)CN(CC(=O)OCOC(C)=O)Cc1cc2c(cc1OC(C)=O)Oc1cc(OC(C)=O)c(CN(CC(=O)OCOC(C)=O)CC(=O)OCOC(C)=O)cc1C21OC(=O)c2ccccc21 | 1.25 µM (inactive) | 2.34 µM (inactive) | 0.303 µM (active) | 1.66 µM | 0.01 µM (active) | 1.05 µM (active) | 0.342 µM (active) | 1.45 µM (inactive) | 0.782 µM (active) | 0.241 µM (active) | 0.902 µM (active) | 1.15 µM (inactive) | 1.27 µM (inactive) | 2.54 µM (inactive) | 1.27 µM (inactive) | 1.36 µM (inactive) | 1.4 µM (inactive) | 0.344 µM (active) | 1.82 µM (inactive) | –
COc1ccc(NC(=O)CC(=O)N2N=C(C)C(/N=N\c3ccc(S(=O)(=O)c4ccc(/N=N/C5C(=O)N(C(=O)CC(=O)Nc6ccc(OC)cc6)N=C5C)cc4)cc3)C2=O)cc1 (stereo unspecified) | > 100 µM (inactive) | > 100 µM (inactive) | > 100 µM (inactive) | > 100 µM | > 100 µM (inactive) | 63.5 µM (inactive) | > 100 µM (inactive) | > 100 µM (inactive) | > 100 µM (inactive) | > 100 µM (inactive) | > 100 µM (inactive) | > 100 µM (inactive) | 35.9 µM (inactive) | > 100 µM (inactive) | > 100 µM (inactive) | 24.9 µM (inactive) | > 100 µM (inactive) | > 100 µM (inactive) | > 100 µM (inactive) | –
Cc1cccc(C)c1NC(=O)C(Cc1c[nH]c2ccccc12)NC(=O)OCc1ccccc1 (stereo unspecified) | 21.2 µM (inactive) | 16.9 µM (inactive) | 23.9 µM (inactive) | 22.3 µM | 12.4 µM (inactive) | 22.4 µM (inactive) | 23.2 µM (inactive) | 16.7 µM (inactive) | 14.7 µM (inactive) | 15.4 µM (inactive) | 20.1 µM (inactive) | 27.3 µM (inactive) | 18.7 µM (inactive) | 22.8 µM (inactive) | 14.9 µM (inactive) | 18.7 µM (inactive) | 20.6 µM (inactive) | 14.5 µM (inactive) | 10.3 µM (inactive) | –
N#C/C(=C1\N=C(c2ccccc2O)Oc2ccccc21)c1ccc([N+](=O)[O-])cc1 | > 100 µM (inactive) | > 100 µM (inactive) | > 100 µM (inactive) | > 100 µM | > 100 µM (inactive) | > 100 µM (inactive) | > 100 µM (inactive) | > 100 µM (inactive) | > 100 µM (inactive) | > 100 µM (inactive) | > 100 µM (inactive) | > 100 µM (inactive) | > 100 µM (inactive) | > 100 µM (inactive) | > 100 µM (inactive) | 70.6 µM (inactive) | > 100 µM (inactive) | > 100 µM (inactive) | > 100 µM (inactive) | –
O=c1[nH]c(=O)n(C2CC(O)C(CO)O2)cc1C#Cc1ccc(F)cc1 (stereo unspecified) | – | > 100 µM (inactive) | – | > 100 µM | – | – | – | – | – | > 100 µM (inactive) | > 100 µM (inactive) | > 100 µM (inactive) | > 100 µM (inactive) | > 100 µM (inactive) | > 100 µM (inactive) | > 100 µM (inactive) | – | > 100 µM (inactive) | > 100 µM (inactive) | > 100 µM (inactive)
N=C(N)NNC(=O)CCn1[nH]c(=O)c(Cl)c(Cl)c1=O | – | > 100 µM (inactive) | – | > 100 µM | > 100 µM (inactive) | – | – | – | – | > 100 µM (inactive) | > 100 µM (inactive) | > 100 µM (inactive) | > 100 µM (inactive) | > 100 µM (inactive) | > 100 µM (inactive) | > 100 µM (inactive) | – | > 100 µM (inactive) | > 100 µM (inactive) | > 100 µM (inactive)
O=C(O)C1C2C=CC(O2)C1C(=O)NCc1cccnc1 (stereo unspecified) | > 100 µM (inactive) | > 100 µM (inactive) | > 100 µM (inactive) | > 100 µM | > 100 µM (inactive) | > 100 µM (inactive) | > 100 µM (inactive) | > 100 µM (inactive) | > 100 µM (inactive) | > 100 µM (inactive) | > 100 µM (inactive) | > 100 µM (inactive) | > 100 µM (inactive) | > 100 µM (inactive) | > 100 µM (inactive) | > 100 µM (inactive) | > 100 µM (inactive) | 72.6 µM (inactive) | > 100 µM (inactive) | –
COc1cc(CCN)c(OC)c(OC)c1 | > 100 µM (inactive) | > 100 µM (inactive) | 44.4 µM (inactive) | > 100 µM | 40.4 µM (inactive) | 62.4 µM (inactive) | 42.3 µM (inactive) | > 100 µM (inactive) | 24.8 µM (inactive) | > 100 µM (inactive) | > 100 µM (inactive) | > 100 µM (inactive) | > 100 µM (inactive) | > 100 µM (inactive) | > 100 µM (inactive) | > 100 µM (inactive) | > 100 µM (inactive) | > 100 µM (inactive) | > 100 µM (inactive) | –
COCOC1CCCC[C@@]1(OCCOCCO[C@@]1(c2ccccc2)CCCC[C@H]1OCOC)c1ccccc1 (stereo partly specified) | – | 41.1 µM (inactive) | > 100 µM (inactive) | > 10 µM | > 100 µM (inactive) | – | – | – | – | > 10 µM (inactive) | > 100 µM (inactive) | > 100 µM (inactive) | > 100 µM (inactive) | 67.9 µM (inactive) | > 100 µM (inactive) | 24.4 µM (inactive) | – | > 100 µM (inactive) | > 100 µM (inactive) | > 100 µM (inactive)
CN(C)CCn1c(=O)c2ccc(NCCN3CCNCC3)c3c(=O)c4ccccc4n(c1=O)c23 | 4.15 µM (inactive) | 2.04 µM (inactive) | 0.692 µM (active) | 1.53 µM | 2.59 µM (inactive) | 0.776 µM (active) | 0.743 µM (active) | 2.56 µM (inactive) | 2.86 µM (inactive) | 0.0294 µM (active) | 4.12 µM (inactive) | 1.91 µM (inactive) | 1.13 µM (inactive) | 3.45 µM (inactive) | 2.94 µM (inactive) | 2.13 µM (inactive) | 9.68 µM (inactive) | 4.07 µM (inactive) | 4.94 µM (inactive) | –
CCC(=C/[C@H](C)C/C=C/C(C)=C/[C@@H](C)C(=O)[C@@H](C)[C@H](O)[C@@H](C)CC)/C=C/[C@H]1CC=CC(=O)O1 [CALLYSTATIN A] | < 0.0012 µM (active) | < 0.0012 µM (active) | < 0.0012 µM (active) | < 0.0012 µM | < 0.0012 µM (active) | 0.329 µM (active) | < 0.0012 µM (active) | < 0.0012 µM (active) | < 0.0012 µM (active) | 0.0887 µM (active) | < 0.0012 µM (active) | < 0.0012 µM (active) | < 0.0012 µM (active) | < 0.0012 µM (active) | < 0.0012 µM (active) | < 0.0012 µM (active) | < 0.0012 µM (active) | < 0.0012 µM (active) | < 0.0012 µM (active) | –
